Measurements from patent US7687500B2, “Substituted oxetanes, method of making, and method of use thereof” (The University of Connecticut, priority 2004, dated 2010).

What was measured:
HIV = conditions: in vitro; cited from earlier work

Row | Compound | melting point [°C] | anti-HIV activity (HIV)
1 | OCC1(n2nc3ccccc3n2)OCC1c1ccccc1 (stereo not drawn) [Example 1, 2-(Benzotriazol-2-yl)-2-(hydroxymethyl)-3-phenyloxetane] | 119 to 123 | –
2 | OCC1(n2nccn2)OCC1c1ccccc1 (stereo not drawn) [Example 2, 2-Hydroxymethyl-3-phenyl-2-(1,2,3-triazol-2-yl)oxetane] | 77 to 78.3 | –
3 | Nc1ncnc2c1ncn2[C@@H]1O[C@H](CO)[C@H]1CO [oxetanocin] | – | potent anti-HIV activity in vitro
